Data from patent US20200316077A1, “PHARMACEUTICAL COMPOSITION FOR THE TREATMENT OF CANCER” (IMPETIS BIOSCIENCES LTD., priority 2017, published 2020).

Assays:
[1] = tested on: CT26 cells (colon cancer); test: CT26 Colon Cancer Model: tumor suppression in mice; format: in vivo; settings: BALB/c mice, 3 mg/kg, PO, BID, Day 22, n = 12
Description: (§1) Tumor Suppression Activity of Adenosine A2A (Compound 31) and A2B (Compound 169) Antagonists in Xenograft Models of Cancer
(§2) General Protocol: 6-8 weeks old BALB/c mice were acclimated and on Day 1 of the study, the mice were injected with 50 μL of medium containing 5×10^4 4T1 cells (breast cancer) or 5×10^5 CT26 cells (colon cancer). On day 8 or 9, the mice were segregated into different groups and treated orally with either vehicle (1% Tween-80+0.5% Carboxymethylcellulose in water) or test compound [(Compound 32 5-Amino-3-[2-[4-[2-fluoro-4-(2-methoxyethoxy)phenyl]piperazin-1-yl]ethyl]-8-(2-furyl)-1-methyl-[1,2,4]triazolo[5,1-f]purin-2-one (32) & Phosphoric acid mono-{2-cyano-6-oxo-1-propyl-8-[1-(3-trifluoromethyl-benzyl)-1H-pyrazol-4-yl]-1,6-dihydro-purin-7-ylmethyl} ester (335)] in vehicle. The treatment was BID for 22 days (colon cancer) or 28 days (breast cancer). At the end of the study, the tumor volume was measured as (length X breadth)/2. Data were presented as % reduction compared to the tumor volume in vehicle treated animals.

[2] = tested on: 4T1 cells (breast cancer); test: 4T1 Breast Cancer Model: tumor suppression in mice; format: in vivo; settings: BALB/c mice, 3 mg/kg, PO, BID, Day 28, n = 12
Description: as §1, §2

CCCn1c(C#N)nc2nc(-c3cnn(Cc4cccc(C(F)(F)F)c4)c3)n(COP(=O)(O)O)c2c1=O [Compound 335, Phosphoric acid mono-{2-cyano-6-oxo-1-propyl-8-[1-(3-trifluoromethyl-benzyl)-1H-pyrazol-4-yl]-1,6-dihydro-purin-7-ylmethyl} ester]
% decrease in Tumor growth vs. vehicle On Day 22 [1]: 23.90%
% decrease in Tumor growth vs. vehicle On Day 28 [2]: 46.40%
